Reference: patent US11578055B2, “Triazacyclododecansulfonamide (“TCD”)-based protein secretion inhibitors” (KEZAR LIFE SCIENCES, priority 2018, dated 2023)
Where two headings read alike, the source gives them in different places.

Key:
[1] = test system: PD1 signal sequence plus 10 amino acids fused to Gaussia Luciferase (PD1-ss+10aa/Gaussia Luciferase); assay: Dox Induced PD1-ss-Gluc Assay; format: cell-based; settings: 24 hr, read-out: 24 hr Dox Inducible PD1ssGluc 293FRT/TO: Mean IC50
Summary of the method: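 Stable Flp-In 293 T-REx line expressing the fusion under tetracycline-inducible control, plated the day before assay. Compound dilutions added with doxycycline and incubated at 37 °C, 5% CO2; unspecified stereocentres mean data refer to stereoisomer mixtures.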

[2] = test system: full length TNFα (amino acids 1-233) fused to Gaussia Luciferase; assay: Dox Induced TNFα-FL-Gluc Assay; format: cell-based; settings: 24 hr, read-out: 24 hr Dox Inducible TNFaFLGluc 293FRT/TO: Mean IC50
Summary of the method: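 Stable Flp-In 293 T-REx line expressing doxycycline-inducible full-length TNFα fused to Gaussia luciferase; cells plated the day before, then treated with compound dilutions in doxycycline-containing medium at 37° C, 5% CO2. Unspecified stereocentres mean stereoisomer mixtures were tested.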

[3] = test system: full length IL-2 (amino acids 1-153) fused to Gaussia Luciferase; assay: Dox Induced IL2-FL-Gluc Assay; format: cell-based; settings: 24 hr, read-out: 24 hr Dox Inducible IL2FLGluc 293FRT/TO: Mean IC50
Summary of the method: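 Flp-In 293 T-REx stable line expressing full-length IL-2 (aa 1-153) with C-terminal Gaussia luciferase fusion under doxycycline-inducible control. Cells plated the day before; compound dilutions added in DMSO/media containing doxycycline, incubated at 37° C, 5% CO2.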

[4] = test system: HER3 signal sequence plus 4 amino acids fused to Gaussia Luciferase (HER3-ss+4aa/Gaussia Luciferase); assay: Dox Induced HER3-ss-Gluc Assay; format: cell-based; settings: 24 hr, doxycycline induced, Flp-In 293 T-REx cells; read-out: 24 hr Dox Inducible Her3(ss + 4) Gluc 293FRT/TO: Mean 1050
Description: FIp-In 293 T-REx™ cells were transfected with pcDNA™5/FRT/TO plasmid inserted with cDNA encoding Gaussia Luciferase fused to the 3′ end of cDNA encoding HER3 signal sequence plus 4 amino acids (N-[…]-C) (SEQ ID NO: 2). Transfected cells were selected for resistance to the selectable markers Hygromycin and Blasticidin to create a stable cell line that contained the HER3-ss+4aa/Gaussia Luciferase cDNA insert whose expression was regulated under the T-REx™ system. The day before assay, cells were trypsinized and plated in 384-well tissue culture plates. The next day, compound dilutions in DMSO/media containing doxycycline were added to the wells and incubated at 37° C., 5% CO2.
For chemical structures that include one or more stereoisomers, but are illustrated without indicating stereochemistry, the assay data refers to a mixture of stereoisomers.

[5] = test system: multiple myeloma cell line NCl-H929; assay: H929 Cell Viability Assay; format: cell-based, human
Summary of the method: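 NCI-H929 myeloma cells in RPMI 1640 with 10% FBS were treated with compound dilutions for 48 h at 37 °C, and viability was then read by CellTiter-Glo luminescence. Compounds drawn without stereochemistry were tested as stereoisomer mixtures.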

[6] = test system: multiple myeloma cell line U266B1; assay: U266 Cell Viability Assay; format: cell-based, human; settings: 48 hr
Summary of the method: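 U266B1 myeloma cells in RPMI 1640 with 10% FBS were treated with compound dilutions for 48 h at 37° C, 5% CO2. Viability was read as CellTiter-Glo luminescence. Data for structures drawn without stereochemistry refer to stereoisomer mixtures.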

[7] = In Vitro Microsome Stability Assay (human); format: in vitro ADME
Summary of the method: (§1)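 Species liver microsomes in potassium phosphate buffer were preincubated at 37 °C for 3–5 min with test compound (added from 0.25 mM DMSO stock), then started with NADPH. Samples at 0 and 30 min were quenched with acetonitrile containing internal standard and analysed by LC-MS/MS; % remaining at 30 min used analyte/IS AUC ratios relative to t=0.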

[8] = In Vitro Microsome Stability Assay (mouse); format: in vitro ADME
Summary of the method: as §1

[9] = In Vitro Microsome Stability Assay (rat); format: in vitro ADME
Summary of the method: as §1

[10] = In Vitro Microsome Stability Assay (monkey); format: in vitro ADME
Summary of the method: as §1

[11] = Homo sapiens, NCI-H929, 48 h, H929, Celltiter-Glo
[12] = Homo sapiens, U-266, U266, Celltiter-Glo
[13] = human liver microsomes, 30 min w/ NADPH
[14] = mouse liver microsomes, 30 min w/ NADPH
[15] = rat liver microsomes, 30 min w/ NADPH
[16] = monkey liver microsomes, 30 min w/ NADPH

Row | IC50 ([1]; Dox inducible, 293FRT/TO cells) [µM] | IC50 ([2]; Dox inducible, 293FRT/TO cells) [µM] | IC50 ([3]; Dox inducible, 293FRT/TO cells) [µM] | IC50 [4] [µM] | EC50 [5, 11] [µM] | EC50 [6, 12] [µM] | Liver Microsome Stability-% Left after 30 min w/ NADPH (%) Human [7, 13] [%] | Liver Microsome Stability-% Left after 30 min w/ NADPH (%) Mouse [8, 14] [%] | Liver Microsome Stability-% Left after 30 min w/ NADPH (%) Rat [9, 15] [%] | Liver Microsome Stability-% Left after 30 min w/ NADPH (%) Monkey [10, 16] [%] | Structure (SMILES) | also measured
1 | 0.129 | 1.81 | 0.305 | 0.23 | 2.36 | > 25 | 37.2 | 38.9 | 38.7 | 31.7 | C[C@H]1CN(S(=O)(=O)c2ccc(N(C)C)cc2)CCCN([C@@H](C)c2ccccc2)CCCN(S(=O)(=O)N2CCc3ccccc3C2)C1 [A205, N,N-dimethyl-4-{[(3S)-3-methyl-9-[(1 S)-1-phenylethyl]-5-(1,2,3,4-tetrahydroisoquinoline-2-sulfonyl)-1,5,9-triazacyclododecan-1-yl]sulfonyl}aniline] | 
2 | 0.427 | 6.17 | 1.09 | 0.802 | 3.87 | > 25 | 0.05 | 0.03 | 0.07 | 0.15 | C[C@@H]1CN(S(=O)(=O)NCc2ccccc2)CCCN(CC2CCCCC2)CCCN(S(=O)(=O)c2ccc(N(C)C)cc2)C1 [A187, (3S)-N-benzyl-9-(cyclohexylmethyl)-5-[4-(dimethylamino)benzenesulfonyl]-3-methyl-1,5,9-triazacyclododecane-1-sulfonamide] | 
3 | 0.031 | 1.47 | 0.105 | 0.0782 | > 25 | > 25 |  |  |  |  | COc1cc(F)cc(N2CCN(S(=O)(=O)N3CCCN(CC4CCCCC4)CCCN(S(=O)(=O)c4ccc(N(C)C)cc4)C[C@H](C)C3)C[C@H]2C)c1 [A196] | 
4 | 1.44 |  | 2.52 | 2.15 | 6.12 | > 25 | 10.1 | 7.39 | 3.17 | 0.75 | C[C@H]1CN(S(=O)(=O)c2ccc(N(C)C)cc2)CCCNCCCN(S(=O)(=O)N2CCc3cc(Cl)ccc3C2)C1 [A183, 4-{[(3S)-5-[(6-chloro-1,2,3,4-tetrahydroisoquinolin-2-yl)sulfonyl]-3-methyl-1,5,9-triazacyclododecan-1-yl]sulfonyl}-N,N-dimethylaniline] | 
5 | 0.0788 | 5.64 | 0.248 |  | > 25 | > 25 | 56.1 | 49.2 | 53.8 | 55.9 | C[C@H]1CN(S(=O)(=O)c2ccc(N(C)C)cc2)CCCN(CC2CCCCC2)CCCN(S(=O)(=O)N2CCN(c3ccccc3OC(F)(F)F)CC2)C1 [A173, 4-{[(3S)-9-(cyclohexylmethyl)-3-methyl-5-({4-[2-(trifluoromethoxy)phenyl]piperazin-1-yl}sulfonyl)-1,5,9-triazacyclododecan-1-yl]sulfonyl}-N,N-dimethylaniline] | 
6 |  |  |  |  |  |  |  |  |  |  | C[C@H]1CN(S(=O)(=O)c2ccc(N(C)C)cc2)CCCN(CC2CCCCC2)CCCN(S(=O)(=O)N2CC[C@@H](c3ccccc3)C2)C1 [A90, 4-{[(3S)-9-(cyclohexylmethyl)-3-methyl-5-{[(3S)-3-phenylpyrrolidin-1-yl]sulfonyl}-1,5,9-triazacyclododecan-1-yl]sulfonyl}-N,N-dimethylaniline] | IC50 ([1]; 293FRT/TO): 0.207 µM; IC50 ([2]; 293FRT/TO): 2.41 µM; IC50 ([3]; 293FRT/TO): 0.493 µM; EC50 ([5]; Homo sapiens, NCI-H929, 48 h, H929, read-out: 48 hr H929 Viability Celltiter-Glo: Mean EC50): 3.79 µM; EC50 ([6]; Homo sapiens, U-266, U266, read-out: 48 hr U266 Viability Celltiter-Glo: Mean EC50): > 25 µM; Liver Microsome Stability-% Left after 30 min w/ NADPH (%) Human ([7]; human, 30 min, NADPH): 20.1%; Liver Microsome Stability-% Left after 30 min w/ NADPH (%) Mouse ([8]; mouse, 30 min, NADPH): 28.2%; Liver Microsome Stability-% Left after 30 min w/ NADPH (%) Rat ([9]; rat, 30 min, NADPH): 20.2%; Liver Microsome Stability-% Left after 30 min w/ NADPH (%) Monkey ([10]; monkey, 30 min, NADPH): 14.1%
7 | 0.0292 | 0.436 | 0.0664 |  | 1.75 | > 25 | 3.46 | 3.65 | 2.23 | 2.63 | CC1Cc2ccccc2CN1S(=O)(=O)N1CCCN(CC2CCCCC2)CCCN(S(=O)(=O)c2ccc(N(C)C)cc2)C[C@H](C)C1 (stereo partly drawn) [A172, 4-{[(3S)-9-(cyclohexylmethyl)-3-methyl-5-[(3-methyl-1,2,3,4-tetrahydroisoquinolin-2-yl]sulfonyl]-1,5,9-triazacyclododecan-1-yl]sulfonyl}-N,N-dimethylaniline] | 
8 | 0.431 | 4.24 | 0.863 |  | 9.11 | > 25 | 0.26 | 0.48 | 1.14 | 0.66 | CC(C)N1CCCN(S(=O)(=O)c2ccc(N(C)C)cc2)C[C@H](C)CN(S(=O)(=O)N2CCc3cc(Cl)ccc3C2)CCC1 [A141, 4-{[(3S)-5-[(6-chloro-1,2,3,4-tetrahydroisoquinolin-2-yl)sulfonyl]-3-methyl-9-(propan-2-yl)-1,5,9-triazacyclododecan-1-yl]sulfonyl}-N,N-dimethylaniline] | 
9 | 0.0556 | 1.93 | 0.0812 |  |  |  | 64.2 | 72.8 | 54.9 | 57.5 | Cc1cc(F)ccc1N1CCN(S(=O)(=O)N2CCCN(CC3CCCCC3)CCCN(S(=O)(=O)c3ccc(N(C)C)cc3)C[C@H](C)C2)C(C)C1 (stereo in doubt) [A163, 4-{[(3S)-9-(cyclohexylmethyl)-5-{[(2 R)-4-(4-fluoro-2-methylphenyl)-2-methylpiperazin-1-yl]sulfonyl}-3-methyl-1,5,9-triazacyclododecan-1-yl]sulfonyl}-N,N-dimethylaniline] | EC50 ([5]; 48 hr, H929, Celltiter-Glo): 13.6 µM; EC50 ([6]; U266, Celltiter-Glo): > 25 µM
10 | 0.0149 | 0.504 | 0.0587 |  | 0.749 | > 25 | 7.33 | 17.5 | 12.3 | 10.2 | COc1ccccc1N1CCN(S(=O)(=O)N2CCCN(CC3CCCCC3)CCCN(S(=O)(=O)c3ccc(N(C)C)cc3)C[C@H](C)C2)CC1 [A154, 4-{[(3S)-9-(cyclohexylmethyl)-5-{[4-(2-methoxyphenyl)piperazin-1-yl]sulfonyl}-3-methyl-1,5,9-triazacyclododecan-1-yl]sulfonyl}-N,N-dimethylaniline] | 
